According to patent publication US9096624B2 (OSI Pharmaceuticals, LLC, priority 2009, dated 2015):

Experiments:
FAK [1] = target: T1, FAK (Homo sapiens, UniProt Q05397); assay: Cell-based capture ELISA for inhibition of FAK autophosphorylation [pY397] in MiaPaCa2 cells
Description: Cell-Based Assays for Inhibition of FAK Autophosphorylation: MiaPaCa2 and U87MG
ELISA kit from Invitrogen (KHO0441).
Reagents Provided in Biosource FAK [pY397]
The cells were then suspended in cell assay medium.

FAK [2] = target: T1, FAK; assay: biochemical
[3] = MIA-PaCa2 cells, + 50% mouse plasma (Table 3), read-out: Mean FAK Cell Mechanistic IC50 + 50% mP MIA-PaCa2
[4] = MIA-PaCa2 cells, + 50% mouse plasma (Table 2), read-out: Mean FAK Cell Mechanistic IC50 + 50% mP MIA-PaCa2
[5] = MIA-PaCa2 cells on fibronectin, 2 h, no plasma, read-out: Mean FAK Cell Mechanistic IC50 MIA-PaCa2
[6] = MIA-PaCa2 cells, + 50% human plasma, read-out: Mean FAK Cell Mechanistic IC50 + 50% hP MIA-PaCa2

T1 sequence (Q05397 whole entry): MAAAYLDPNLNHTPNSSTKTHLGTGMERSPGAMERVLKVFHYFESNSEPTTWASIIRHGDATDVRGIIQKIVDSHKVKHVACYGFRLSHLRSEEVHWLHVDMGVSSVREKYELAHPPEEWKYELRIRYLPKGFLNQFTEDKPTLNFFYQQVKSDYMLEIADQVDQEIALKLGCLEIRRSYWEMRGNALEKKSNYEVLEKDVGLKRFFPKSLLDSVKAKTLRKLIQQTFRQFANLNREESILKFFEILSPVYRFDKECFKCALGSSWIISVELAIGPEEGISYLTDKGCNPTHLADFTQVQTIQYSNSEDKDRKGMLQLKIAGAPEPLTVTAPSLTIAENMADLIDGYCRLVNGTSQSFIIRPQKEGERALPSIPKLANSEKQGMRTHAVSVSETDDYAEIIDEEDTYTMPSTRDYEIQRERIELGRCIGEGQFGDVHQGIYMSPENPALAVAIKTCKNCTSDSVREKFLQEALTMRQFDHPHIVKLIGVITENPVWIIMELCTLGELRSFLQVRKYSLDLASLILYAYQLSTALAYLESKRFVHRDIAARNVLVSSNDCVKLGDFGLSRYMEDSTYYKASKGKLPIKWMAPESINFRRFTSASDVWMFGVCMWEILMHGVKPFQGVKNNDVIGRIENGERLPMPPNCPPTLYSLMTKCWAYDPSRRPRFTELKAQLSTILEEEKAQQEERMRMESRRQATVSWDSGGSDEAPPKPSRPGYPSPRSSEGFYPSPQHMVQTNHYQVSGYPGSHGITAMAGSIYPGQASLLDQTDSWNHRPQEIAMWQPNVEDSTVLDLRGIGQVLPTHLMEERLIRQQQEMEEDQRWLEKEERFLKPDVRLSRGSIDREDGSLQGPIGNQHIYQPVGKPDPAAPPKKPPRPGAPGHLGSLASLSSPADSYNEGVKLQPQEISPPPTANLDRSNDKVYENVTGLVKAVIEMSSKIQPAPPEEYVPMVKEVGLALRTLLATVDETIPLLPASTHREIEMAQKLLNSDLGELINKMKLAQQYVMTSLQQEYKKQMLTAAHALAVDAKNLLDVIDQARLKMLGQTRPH

Compound	IC50 (FAK [2])	IC50 (FAK [1]; [4])	also measured
CCOP(=O)(Cc1ccc(Nc2ncc(C(F)(F)F)c(Nc3cccc4c3C(=O)N(C)C4=O)n2)c(OC)c1)OCC [Example 105, Diethyl [3-methoxy-4-({4-[(2-methyl-1,3-dioxo-2,3-dihydro-1H-isoindol-4-yl)amino]-5-(trifluoromethyl)pyrimidin-2-yl}amino)benzyl]phosphonate]	< 1000 nM		IC50 (FAK [1]; [3]): 1000 to 10000 nM
CN(c1ncccc1CNc1nc(Nc2cccc(P3(=O)OCC(C)(C)CO3)c2)ncc1C(F)(F)F)S(C)(=O)=O [Example 59, N-[3-({[2-{[3-(5,5-dimethyl-2-oxido-1,3,2-dioxaphosphinan-2-yl)phenyl]amino}-5-(trifluoromethyl)pyrimidin-4-yl]amino}methyl)pyridin-2-yl]-N-methylmethanesulfonamide]	< 1000 nM	1000 to 10000 nM	
CCOP(=O)(Cc1ccc(Nc2ncc(C(F)(F)F)c(Nc3ccc([C@H]4CC[C@@H](O)CC4)c4c3C(=O)N(C)C4)n2)c(OC)c1)OCC [Example 94, Diethyl (4-{[4-{[7-(cis-4-hydroxycyclohexyl)-2-methyl-3-oxo-2,3-dihydro-1H-isoindol-4-yl]amino}-5-(trifluoromethyl)pyrimidin-2-yl]amino}-3-methoxybenzyl)phosphonate]	< 1000 nM	< 1000 nM	
CCOP(=O)(Cc1ccc(Nc2ncc(C(F)(F)F)c(Nc3ccc([C@H]4CC[C@@H](N5CCN(C(C)=O)CC5)CC4)c4c3C(=O)N(C)C4)n2)c(OC)c1)OCC [Example 237, Diethyl (4-{[4-({7-[cis-4-(4-acetylpiperazin-1-yl)cyclohexyl]-2-methyl-3-oxo-2,3-dihydro-1H-isoindol-4-yl}amino)-5-(trifluoromethyl)pyrimidin-2-yl]amino}-3-methoxybenzyl)phosphonate]			IC50 (FAK [1]; [3]): < 1000 nM
CCOP(=O)(Cc1ccc(Nc2ncc(C(F)(F)F)c(Nc3cccc4c3C(=O)N(C)C4(C)C)n2)cc1)OCC [Example 149, Diethyl [4-({5-(trifluoromethyl)-4-[(1,1,2-trimethyl-3-oxo-2,3-dihydro-1H-isoindol-4-yl)amino]pyrimidin-2-yl}amino)benzyl]phosphonate]	< 1000 nM		IC50 (FAK [1]; [3]): 1000 to 10000 nM
CCOP(C)(=O)Cc1ccc(Nc2ncc(C(F)(F)F)c(Nc3ccc(-c4cnn(C[C@@H](O)CO)c4)c4c3C(=O)N(C)C4)n2)cc1 (stereo partly drawn) [Example 65, Ethyl [4-({4-[(7-{1-[(2R)-2,3-dihydroxypropyl]-1H-pyrazol-4-yl}-2-methyl-3-oxo-2,3-dihydro-1H-isoindol-4-yl)amino]-5-(trifluoromethyl)pyrimidin-2-yl}amino)benzyl]methylphosphinate]	< 1000 nM		IC50 (FAK [1]; [5]): < 1000 nM; IC50 (FAK [1]; [6]): < 1000 nM
CCOC(=O)[C@H]1CC[C@H](c2ccc(Nc3nc(Nc4ccc(CP(=O)(OCC)OCC)cc4OC)ncc3C(F)(F)F)c3c2CN(C)C3=O)CC1 [Example 88, Ethyl trans-4-(7-{[2-({4-[(diethoxyphosphoryl)methyl]-2-methoxyphenyl}amino)-5-(trifluoromethyl)pyrimidin-4-yl]amino}-2-methyl-1-oxo-2,3-dihydro-1H-isoindol-4-yl)cyclohexanecarboxylate]	< 1000 nM	< 1000 nM	
CCOP(=O)(Cc1ccc(Nc2ncc(C(F)(F)F)c(Nc3ccc(C4=CCN(C(N)=O)CC4)c4c3C(=O)N(C)C4)n2)c(OC)c1)OCC [Example 73, Diethyl (4-{[4-{[7-(1-carbamoyl-1,2,3,6-tetrahydropyridin-4-yl)-2-methyl-3-oxo-2,3-dihydro-1H-isoindol-4-yl]amino}-5-(trifluoromethyl)pyrimidin-2-yl]amino}-3-methoxybenzyl)phosphonate]	< 1000 nM	< 1000 nM	
CCOP(C)(=O)Cc1ccc(Nc2ncc(C(F)(F)F)c(Nc3ccc(N4CCCC4)c4c3C(=O)N(C)C4)n2)cc1 (stereo not drawn) [Example 80, Ethyl methyl(4-{[4-{[2-methyl-3-oxo-7-(pyrrolidin-1-yl)-2,3-dihydro-1H-isoindol-4-yl]amino}-5-(trifluoromethyl)pyrimidin-2-yl]amino}benzyl)phosphinate]	< 1000 nM		IC50 (FAK [1]; [5]): < 1000 nM; IC50 (FAK [1]; [6]): < 1000 nM
CN(c1ncccc1CNc1nc(Nc2cccc(CP(C)(C)=O)c2)ncc1C(F)(F)F)S(C)(=O)=O [Example 13, N-[3-({[2-({3-[(Dimethylphosphoryl)methyl]phenyl}amino)-5-(trifluoromethyl)pyrimidin-4-yl]amino}methyl)pyridin-2-yl]-N-methylmethanesulfonamide]	< 1000 nM	< 1000 nM	IC50 (FAK [1]; [5]): < 1000 nM; IC50 (FAK [1]; [6]): < 1000 nM
CCOP(=O)(Cc1ccc(Nc2ncc(C(F)(F)F)c(Nc3ccc(-c4cnn(CC(C)(C)O)c4)c4c3C(=O)N(C)C4)n2)c(OC)c1)OCC [Example 98, Diethyl (4-{[4-({7-[1-(2-hydroxy-2-methylpropyl)-1H-pyrazol-4-yl]-2-methyl-3-oxo-2,3-dihydro-1H-isoindol-4-yl}amino)-5-(trifluoromethyl)pyrimidin-2-yl]amino}-3-methoxybenzyl)phosphonate]			IC50 (FAK [1]; read-out: Mean FAK Cell Mechanistic IC50 + 50% mP MIA-PaCa2, MIA-PaCa2 cells, + 50% mouse plasma (Table 3)): < 1000 nM
CN1Cc2c(c(Nc3nc(Nc4ccc(CP5(=O)OCCCO5)cc4)ncc3C(F)(F)F)ccc2[C@H]2CC[C@H](O)CC2)C1=O [compound 230]			IC50 (FAK [1]; [3]): < 1000 nM
CCOP(=O)(Cc1ccc(Nc2ncc(C(F)(F)F)c(Nc3ccc(-c4cnn(C5CC(O)C5)c4)c4c3C(=O)N(C)C4)n2)c(OC)c1)OCC (stereo not drawn) [Example 74, Diethyl (4-{[4-({7-[1-(3-hydroxycyclobutyl)-1H-pyrazol-4-yl]-2-methyl-3-oxo-2,3-dihydro-1H-isoindol-4-yl}amino)-5-(trifluoromethyl)pyrimidin-2-yl]amino}-3-methoxybenzyl)phosphonate]		< 1000 nM	
CCOP(=O)(Cc1ccc(Nc2ncc(C(F)(F)F)c(Nc3ccc(C4=CCN(C(N)=O)CC4)c4c3C(=O)N(C)C4)n2)c(OC)c1)OCC [Example 99, Diethyl (4-{[4-{[7-(1-carbamoyl-1,2,3,6-tetrahydropyridin-4-yl)-2-methyl-3-oxo-2,3-dihydro-1H-isoindol-4-yl]amino}-5-(trifluoromethyl)pyrimidin-2-yl]amino}-3-methoxybenzyl)phosphonate]			IC50 (FAK [1]; [3]): < 1000 nM
CCOP(=O)(Cc1ccc(Nc2ncc(C(F)(F)F)c(Nc3ccc(Br)c4ccn(C)c(=O)c34)n2)cc1)OCC [Example 123, Diethyl [4-({4-[(5-bromo-2-methyl-1-oxo-1,2-dihydroisoquinolin-8-yl)amino]-5-(trifluoromethyl)pyrimidin-2-yl}amino)benzyl]phosphonate]	< 1000 nM		
CCOP(=O)(Cc1ccc(Nc2ncc(C(F)(F)F)c(Nc3ccc(-c4cnn(CCN(CC)CC)c4)cc3C(=O)NC)n2)cc1)OCC [Example 180, Diethyl (4-{[4-{[4-{1-[2-(diethylamino)ethyl]-1H-pyrazol-4-yl}-2-(methylcarbamoyl)phenyl]amino}-5-(trifluoromethyl)pyrimidin-2-yl]amino}benzyl)phosphonate]	< 1000 nM		
CCNC(=O)c1ccccc1Nc1nc(Nc2ccc(CP(=O)(OCC)OCC)cc2OC)ncc1C(F)(F)F [Example 153, Diethyl (4-{[4-{[2-(ethylcarbamoyl)phenyl]amino}-5-(trifluoromethyl)pyrimidin-2-yl]amino}-3-methoxybenzyl)phosphonate]	< 1000 nM		
